{"source": "patent US20150164916A1", "about": "“ROFLUMILAST COMPOSITIONS FOR THE TREATMENT OF COPD” (Forest Laboratories Holdings Ltd., priority 2012, published 2015)", "assay_type_in_all_cases": "cell-based, human", "key": {"MKP1": {"test_system": "MKP1", "experiment": "Real time RT-PCR of MKP1 mRNA in CSE-stimulated neutrophils from COPD patients", "settings": "RNO 1 nM and 1 μM, DEX 1 μM, RNO 1 nM plus DEX 1 μM, NAC 1 mM for 1 h, then CSE 5% 6 h", "method": "(§1) Neutrophils and monocytes were isolated from peripheral venous blood by standard laboratory procedures. In brief, peripheral venous blood was mixed with dextran 500 at 3% (in 0.9% saline) in a proportion of 2:1. This mixture was incubated at room temperature for 30 min until erythrocytes were sedimented. The upper phase was carefully collected and added on Ficoll-Paque Histopaque 1077 (Amershan Pharmacia Biotech, Barcelona, Spain) density gradient in a proportion of 3:1. The two phases generated were centrifuged at 150 g, 4° C. for 30 min. […]\n(§2) CSE was prepared as previously outlined (Milara et al.; Ortiz et al.). […] The quality of the prepared CSE solution was assessed based on the absorbance at 320 nm, which is the specific absorption wavelength of peroxynitrite. Stock solutions with an absorbance value of 3.0±0.1 were used. […]\n(§3) Total RNA was obtained from isolated neutrophils under basal conditions or after different drug and stimulation periods defined above by using TriPure® Isolation Reagent (Roche, Indianapolis, USA). […] Relative quantification of these transcripts was determined with the 2^−ΔΔCt method using glyceraldehyde phosphate dehydrogenase (GAPDH) as endogenous control (Applied Biosystems; 4352339E) and normalized to control group as previously described (Milara et al., 2009).\n(§4) Then, mRNA was isolated and quantified for different genes."}, "CCL-5 release": {"test_system": "CCL-5 release", "experiment": "LPS-induced CCL-5 release in isolated peripheral blood neutrophils (LUMINEX)", "settings": "LPS (1 μg/ml), 6 h", "method": "(§5) Neutrophils and monocytes were isolated from peripheral venous blood by standard laboratory procedures. In brief, peripheral venous blood was mixed with dextran 500 at 3% (in 0.9% saline) in a proportion of 2:1. This mixture was incubated at room temperature for 30 min until erythrocytes were sedimented. The upper phase was carefully collected and added on Ficoll-Paque Histopaque 1077 (Amershan Pharmacia Biotech, Barcelona, Spain) density gradient in a proportion of 3:1. The two phases generated were centrifuged at 150 g, 4° C. for 30 min. Thus, the interface was collected to isolate monocytes, and the pellet obtained (which is consisted a mixture of neutrophils and low proportion of residual erythrocytes and traces of eosinophils and basophils) was resuspended in an erythrocyte lysis buffer (Biolegend, UK) for 5 min in ice. Cell suspension was washed two times with phosphate buffer (PBS).\n(§6) Peripheral neutrophil cell suspension was adjusted to 500×10^3 cells per well in 24-well plates and incubated in RPMI culture medium for 1 h into the incubator at 37° C., 5% CO2. […] Both the stimulus and drug were remained together for 6 h. Supernatants were collected and centrifuged at 120 g for 5 min, and the free-cell supernatant was used to measure IL-8, MMP-9, IL-1β, GM-CSF and CCL-5.\n(§7) IL-8 was determined by using commercially available enzyme-linked immunosorbent assay kit for IL-8 (R&D Systems, UK) according to the manufacturer's protocol. MMP-9, IL-1β, GM-CSF and CCL-5 were measured by LUMINEX technology according to the manufacturer's protocol.\n(§8) Data were presented as mean±SEM. IC50 values were calculated for each drug and their combinations. Statistical analysis of results was carried out by analysis of variance (ANOVA) followed by Bonferroni test, by Student's t test, or by non-parametric tests as appropriate (GraphPad Software Inc, San Diego, Calif., USA). Significance was accepted when P<0.05. For clinical correlations of lung function and gene expression from neutrophils the non-parametric Spearman correlation analysis was carried out."}, "IL-8 release": {"test_system": "IL-8 release", "experiment": "LPS- or CSE-induced IL-8 release in isolated peripheral blood neutrophils (ELISA)", "settings": "6 h", "method": "as §5\nCSE was prepared as previously outlined (Milara et al.; Ortiz et al.). Briefly, the smoke of a research cigarette (2R4F; Tobacco Health Research, University of Kentucky, KY, USA) was generated by a respiratory pump (Apparatus Rodent Respirator 680; Harvard, Germany) through a puffing mechanism related to the human smoking pattern (3 puff/min; 1 puff 35 ml; each puff of 2 s duration with 0.5 cm above the filter) and was bubbled into a flask containing 25 ml of pre-warmed (37° C.) RPMI 1640 culture medium supplemented as describe above. The CSE solution was sterilized by filtration through a 0.22-μm cellulose acetate sterilizing system (Corning, N.Y.). The resultant CSE solution was considered to be 100% CSE and was used for experiments within 30 min of preparation. CSE 10% corresponds approximately to the exposure associated with smoking two packs per day (Su et al., 1998). The quality of the prepared CSE solution was assessed based on the absorbance at 320 nm, which is the specific absorption wavelength of peroxynitrite. Stock solutions with an absorbance value of 3.0±0.1 were used. To test for cytotoxicity from CSE, isolated neutrophils and monocytes were treated with CSE concentrations of up to 5% for 24.\nas §6, §7, §8"}, "GCβ": {"test_system": "GCβ", "experiment": "Real time RT-PCR of GCβ mRNA in CSE-stimulated neutrophils from COPD patients", "settings": "RNO 1 nM and 1 μM, DEX 1 μM, RNO 1 nM plus DEX 1 μM, NAC 1 mM, CSE 5%", "method": "as §1, §2, §3, §4"}, "[1]": {"settings": "CSE 5%, neutrophils from COPD patients"}, "[2]": {"settings": "CSE 5%, neutrophils from HEALTHY"}, "[3]": {"settings": "LPS (1 μg/ml), neutrophils from COPD patients"}, "[4]": {"settings": "LPS (1 μg/ml), neutrophils from HEALTHY"}}, "data": [{"smiles": "O=C(Nc1c(Cl)c[n+]([O-])cc1Cl)c1ccc(OC(F)F)c(OCC2CC2)c1", "note": "[RNO, roflumilast N-oxide]", "values": [{"measurement": "effect on CSE-induced down-regulation of MKP1 mRNA expression", "setting": "MKP1", "value": "reversed the effect of CSE"}, {"measurement": "-log IC50, inhibition of CCL-5 release", "setting": "CCL-5 release; neutrophils from COPD patients", "value": "8.77 ± 0.35"}, {"measurement": "Maximal % Inhibition of CCL-5 release", "setting": "CCL-5 release; neutrophils from COPD patients", "value": "83.01 ± 6.74", "unit": "%"}, {"measurement": "-log IC50, inhibition of CCL-5 release", "setting": "CCL-5 release; neutrophils from HEALTHY", "value": "8.62 ± 0.14"}, {"measurement": "Maximal % Inhibition of CCL-5 release", "setting": "CCL-5 release; neutrophils from HEALTHY", "value": "79.34 ± 3.63", "unit": "%"}, {"measurement": "-log IC50, inhibition of IL-8 release", "setting": "IL-8 release; [1]", "value": "7.92 ± 0.1"}, {"measurement": "Maximal % Inhibition of IL-8 release", "setting": "IL-8 release; [1]", "value": "88.9 ± 5.62", "unit": "%"}, {"measurement": "-log IC50, inhibition of IL-8 release", "setting": "IL-8 release; [2]", "value": "7.95 ± 0.12"}, {"measurement": "Maximal % Inhibition of IL-8 release", "setting": "IL-8 release; [2]", "value": "90.4 ± 5.4", "unit": "%"}, {"measurement": "-log IC50, inhibition of IL-8 release", "setting": "IL-8 release; [3]", "value": "7.44 ± 0.24"}, {"measurement": "Maximal % Inhibition of IL-8 release", "setting": "IL-8 release; [3]", "value": "48.70 ± 5.18", "unit": "%"}, {"measurement": "-log IC50, inhibition of IL-8 release", "setting": "IL-8 release; [4]", "value": "7.46 ± 0.26"}, {"measurement": "Maximal % Inhibition of IL-8 release", "setting": "IL-8 release; [4]", "value": "40.50 ± 4.55", "unit": "%"}, {"measurement": "effect on CSE-induced GCβ upregulation", "setting": "GCβ", "value": "inhibited"}]}]}
